One assay relates to HL60. Kind of assay: MTT cell proliferation test, cytotoxicity on HL60 leukemia cells. The format is cell-based, human. Here is the method: (§1) IC50 Determination Using the Photometric Assay.
(§2) All cell lines, MCF7, HT29, HL60, A549 and CRL1790 were purchased from ATCC (American Cell Culture Collection). As exemplified the MCF-7 human breast cancer, the cell line was grown in Iscove's Modified Dulbecco's Medium, supplemented with 10% heat-inactivated fetal bovine serum, penicillin (100 Ul/mL), streptomycin (100 μg/mL), amphotericin (250 ng/mL), L-glutamine (2 mM) and 1% non-essential amino acids solution. The culture of HL-60 human leukemia cells was conducted in Iscove's Modified Dulbecco's Medium, supplemented with 20% heat-inactivated fetal bovine serum, penicillin (100 Ul/mL), streptomycin (100 μg/mL), amphotericin (250 ng/mL), L-glutamine (2 mM) and 1% non-essential amino acids solution.
(§3) The cells were grown at 37° C. in a humidified atmosphere containing 5% CO2. After 80% confluence was reached, the adherent MCF7, HL-60, cells were detached with a 0.25% trypsin solution and seeded in 96-well plates at a density of 5×10^4 cells/mL, 5×10^5 cells/mL, respectively.
(§4) After overnight incubation, the increasing concentrations (0.1-20 μM) of studied compounds dissolved in DMSO were added to the wells. Pure DMSO diluted at the ratio of 1:1000 (v/v) in growth media was added to control wells. After 24, 48 or 72 hours of incubation the MTT-cell proliferation test was performed.
(§5) The test exploits the ability of living cells mitochondrial dehydrogenases to convert water-soluble 3-(4,5-dimethylthiazol-2-yl)-2,5-diphenyltetrazolium bromide (MTT) to non-soluble formazan. Briefly, after 3 hours incubation of cells with MTT solution the absorbance of formazan dissolved in isopropyl alcohol was measured in a Power Wavex microplate spectrophotometer (BioTek Instruments) at 570 nm.
(§6) In order to compare the cytotoxicity of studied compounds the IC50 values (the concentrations which induce the cell viability decreased to 50% of the control) were determined. The normalized MTT data were fitted to log(inhibitor) vs. response-variable slope model (R^2>0.9) described by the Equation 1 using Prism 5 ver 5.03 (GraphPad Software, Inc):
(§7) [formula] where: V—cell viability, c—compound concentration, h—Hill coefficient.
(§8) As a result log IC50 with the standard error were calculated.
Background: Formazan colour is commonly taken as a measure of viable cells.

A further assay has as its system MCF7. Kind of assay: MTT cell proliferation test, cytotoxicity on MCF7 breast cancer cells. The format is cell-based, human. The following applies: MCF7, 72 hrs incubation, read-out: IC50 μmole/L, after 72 hrs incubation time. Here is the method: as §1, §2, §3, §4, §5, §6, §7, §8
Another assay deals with HT29. The assay can be described thus: MTT cell proliferation test, cytotoxicity on HT29 colon cancer cells. As to conditions: HT29, 72 hrs incubation, read-out: IC50 μmole/L, after 72 hrs incubation time. The format is cell-based. How it is done:
as §1, §2, §3, §4, §5, §6, §7, §8

Another assay concerns A549. Kind of assay: MTT cell proliferation test, cytotoxicity on A549 lung cancer cells. The format is cell-based. As to conditions: A549, 72 hrs incubation, read-out: IC50 μmole/L, after 72 hrs incubation time. Here is the method:
as §1, §2, §3, §4, §5, §6, §7, §8

For the next assay, the system named is CRL1790. The assay can be described thus: MTT cell proliferation test, cytotoxicity on CRL1790 normal cells. The format is cell-based. As to conditions: CRL1790, 72 hrs incubation, read-out: IC50 μmole/L, after 72 hrs incubation time. Here is the method:
as §1, §2, §3
[…] Pure DMSO diluted at the ratio of 1:1000 (v/v) in growth media was added to control wells. After 24, 48 or 72 hours of incubation the MTT-cell proliferation test was performed.
as §5
In order to compare the cytotoxicity of studied compounds the IC50 values (the concentrations which induce the cell viability decreased to 50% of the control) were determined. The normalized MTT data were fitted to log(inhibitor) vs. response-variable slope model (R^2>0.9) described by the Equation 1 using Prism 5 ver 5.03 (GraphPad Software, Inc): […]
as §8

[1] abbreviates: Blood, HL60, 72 hrs incubation, MTT, read-out: IC50 μmole/L, after 72 hrs incubation time.

Molecules are shown by their SMILES. Like-named read-outs stand apart in the source and are kept apart here.

As for `CCc1c2c(nc3ccc(O)c(CN4CCC4)c13)-c1cc3c(c(=O)n1C2)COC(=O)C3(O)CC` (centres unmarked) [CC1, (N-azetidinyl)methyl-7-ethyl-10-hydroxycamptothecin, reference compound], the IC50 in the assay on HL60 (setting [1]) came to 0.012 µmol/L; in the assay on MCF7 it was 0.99 µmol/L; with HT29, 0.07 µmol/L; in the assay on A549 it was 0.071 µmol/L.
Consider `CCc1c2c(nc3ccc(O)c(CN4CCCC4)c13)-c1cc3c(c(=O)n1C2)COC(=O)C3(O)CC` (centres unmarked) [CC2, (N-pyrrolidinyl)methyl-7-ethyl-10-hydroxycamptothecin, reference compound], for which the IC50 in the assay with HL60 (no unit or cell line printed, values match the HL60 line of Table 1, read-out: IC50) amounted to 0.014 µmol/L; in the assay with MCF7 it was 1.43 µmol/L; in the assay with HT29 it was 0.24 µmol/L; in the assay on A549, 0.083 µmol/L.
On to `CCc1c2c(nc3ccc(O)cc13)-c1cc3c(c(=O)n1[C@H]2CN1CCCC1)COC(=O)[C@]3(O)CC` [Compound 1, 5-(R)—(N-pyrrolidinyl)methyl-7-ethyl-10-hydroxycamptothecin], for which the IC50 was determined as 0.011 µmol/L with HL60 (setting [1]), 0.81 µmol/L with MCF7, 0.6 µmol/L in the assay on HT29 and 0.204 µmol/L in the assay on A549.
For `CCc1c2c(nc3ccc(O)cc13)-c1cc3c(c(=O)n1[C@@H]2CN1CCCC1)COC(=O)C3(O)CC` (stereo partly drawn) [Compound 2, 5-(S)—(N-pyrrolidinyl)methyl-7-ethyl-10-hydroxycamptothecin], in that order: 0.007 µmol/L, 0.96 µmol/L, 0.49 µmol/L and 0.272 µmol/L.
For `CCc1c2c(nc3ccc(O)cc13)-c1cc3c(c(=O)n1[C@H]2CO)COC(=O)C3(O)CC` (stereo partly drawn) [Compound 3, 5-(R)-hydroxymethyl-7-ethyl-10-hydroxycamptothecin], the IC50 turned out to be 0.72 µmol/L in the assay with HL60 (setting [1]), 15.9 µmol/L in the assay on MCF7, 9.48 µmol/L in the assay on HT29 and 4.27 µmol/L in the assay with A549.
The like results for `CCc1c2c(nc3ccc(O)cc13)-c1cc3c(c(=O)n1[C@@H]2CO)COC(=O)[C@]3(O)CC` [Compound 4, 5-(S)-hydroxymethyl-7-ethyl-10-hydroxycamptothecin] were, in that order, 1.89 µmol/L, 14.9 µmol/L, 14.8 µmol/L and 6.54 µmol/L.
Consider `C=c1c2c(CC)c3cc(O)ccc3nc2c2cc3c(c(=O)n12)COC(=O)C3(O)CC` (centres unmarked) [Compound 5, 5-methylidene-7-ethyl-10-hydroxycamptothecin], for which the IC50 in the assay on HT29 turned out to be 0.15 µmol/L; with A549 it was 1.94 µmol/L.
For `CCc1c2c(nc3ccc(O)c(CN4CCC4)c13)-c1cc3c(c(=O)n1[C@H]2CO)COC(=O)C3(O)CC` (stereo partly drawn) [Compound 6, 5-(R)-hydroxymethyl-7-ethyl-9-(N-azetidinyl)methyl-10-hydroxycamptothecin], the IC50 is 0.33 µmol/L in the assay on HL60 (setting [1]); 11.1 µmol/L in the assay on MCF7; above 1000 µmol/L in the assay with CRL1790; 6.98 µmol/L with HT29; 5.22 µmol/L in the assay with A549.
For `CCc1c2c(nc3ccc(O)c(CN4CCC4)c13)-c1cc3c(c(=O)n1[C@@H]2CO)COC(=O)[C@]3(O)CC` [Compound 7, 5-(S)-hydroxymethyl-7-ethyl-9-(N-azetidinyl)methyl-10-hydroxycamptothecin], in that order: 0.11 µmol/L, 6.7 µmol/L, above 1000 µmol/L, 2.5 µmol/L and 1.17 µmol/L.
On to `CCc1c2c(nc3ccc(O)cc13)-c1cc3c(c(=O)n1C2)COC(=O)[C@]3(O)CC` [SN38, 7-ethyl-10-hydroxycamptothecin], for which the IC50 in the assay with HL60 (setting [1]) came out at 0.002 µmol/L; with MCF7, 0.66 µmol/L; in the assay on CRL1790, 4.98 µmol/L; in the assay on HT29, 0.02 µmol/L; with A549 it was 0.028 µmol/L.

For the origin of these results see patent US12091417B2, “7-ethyl-10-hydroxycamptothecin derivatives for use in the treatment of cancer” (Narodowy Instytut Lekow, priority 2020, dated 2024).
